US20130184257A1, “PIPERIDINYL-SUBSTITUTED LACTAMS AS GPR119 MODULATORS” (priority 2010, published 2013)

Test system: modified version of the GPR119 receptor (94% identity to human receptor) stably expressed in HEK-293 cells
Experiment: cAMP Production Assay (LANCE cAMP kit, TR-FRET)
Assay type: cell-based
Settings: for cAMP production in HEK-293 cells: HEK-293 cells expressing modified GPR119, test compounds 0.2 nM to 10 μM, one-hour incubation at ambient temperature; for Fold over baseline: increase in cAMP relative to basal levels, 1.5-fold or greater = agonist activity
Procedure: The assay utilized HEK-293 cells that stably express a modified version of the GPR119 receptor (94% identity to human receptor), under the control of a CMV promoter containing a tet-on element for tetracycline-inducible expression. GPR119 agonist-induced cyclic AMP (cAMP) production was measured in this cell line using the LANCE cAMP kit (Perkin Elmer, Waltham, Mass.). To generate a working stock of cells for the assay, cells were treated overnight with 1 μg/mL doxycycline at 37° C. in the presence of 5% CO2 to induce receptor expression. Cells were then harvested by enzymatic dissociation with 0.05% trypsin, resuspended in freezing medium (DMEM growth medium with 10% each of fetal bovine serum and DMSO), aliquoted and frozen at −80° C. On the day of the assay, frozen cells were thawed, washed 1× in PBS and resuspended in Hank's buffered salt solution (HBSS) containing 5 mM HEPES, 0.1% BSA and Alexa Fluor 647-conjugated anti-cAMP antibody (diluted 1:100). The cell suspension was then transferred to a Proxiplate Plus white 384-well assay plate (Perkin-Elmer) at 2000 cells/well. Test compounds at final concentrations ranging from 0.2 nM to 10 μM were added to the assay plate, followed by a one-hour incubation at ambient temperature (volume=10 μL/well). DMSO concentration was held constant at 0.5%. After incubation with test compounds, 10 μL of a detergent buffer containing a biotinylated cAMP/Europium-conjugated streptavidin complex (Europium-labeled cAMP tracer) were added to each well on the assay plate, followed by a 2-hour incubation at ambient temperature. During this incubation cAMP released from lysed cells competes with the Europium-labeled cAMP tracer for binding to the Alexa Fluor 647-conjugated antibody. […] Cellular cAMP levels were then determined by interpolation of raw signal data using a cAMP standard curve. Compounds were determined to have agonist activity if they stimulated a 1.5-fold or greater increase in cAMP relative to basal levels.

CC(F)(F)c1nc(N2CCC(N3CC[C@H](Nc4ccc(S(C)(=O)=O)cc4F)C3=O)CC2)no1 [Example 49, (S)-1-(1-(5-(1,1-difluoroethyl)-1,2,4-oxadiazol-3-yl)piperidin-4-yl)-3-(2-fluoro-4-(methylsulfonyl)phenylamino)pyrrolidin-2-one]
cAMP production in HEK-293 cells: 20.8 nmol | Fold over baseline: 2.7

CS(=O)(=O)c1cc(F)c(N[C@H]2CCN(C3CCN(c4noc(C(F)(F)F)n4)CC3)C2=O)c(F)c1 [Example 22, (S)-3-(2,6-difluoro-4-(methylsulfonyl)phenylamino)-1-(1-(5-(trifluoromethyl)-1,2,4-oxadiazol-3-yl)piperidin-4-yl)pyrrolidin-2-one]
cAMP production in HEK-293 cells: 17.6 nmol | Fold over baseline: 3.6

CS(=O)(=O)c1cc(F)c(O[C@H]2CCN(C3CCN(c4noc(C(F)(F)F)n4)CC3)C2=O)c(F)c1 [Example 28, (S)-3-(2,6-difluoro-4-(methylsulfonyl)phenoxy)-1-(1-(5-(trifluoromethyl)-1,2,4-oxadiazol-3-yl)piperidin-4-yl)pyrrolidin-2-one]
cAMP production in HEK-293 cells: 101.5 nmol | Fold over baseline: 5.0

CC[C@H](C)c1nc(N2CCC(N3CC[C@H](Nc4ccc(S(C)(=O)=O)cc4F)C3=O)CC2)no1 [Example 41, (S)-1-(1-(5-sec-butyl-1,2,4-oxadiazol-3-yl)piperidin-4-yl)-3-(2-fluoro-4-(methylsulfonyl)phenylamino)-pyrrolidin-2-one]
cAMP production in HEK-293 cells: 15.9 nmol | Fold over baseline: 4.0

CC(F)(F)c1nc(N2CCC(N3CCC[C@H](Nc4cc(F)c(S(C)(=O)=O)cc4F)C3=O)CC2)no1 [Example 48, (S)-3-(2,5-difluoro-4-(methylsulfonyl)phenylamino)-1′-(5-(1,1-difluoroethyl)-1,2,4-oxadiazol-3-yl)-1,4′-bipiperidin-2-one]
cAMP production in HEK-293 cells: 8.4 nmol | Fold over baseline: 2.3

CC(C)(c1nc(N2CCC(N3CC[C@H](Nc4ccc(S(C)(=O)=O)cc4F)C3=O)CC2)no1)C(F)(F)F [Example 39, (S)-3-(2-fluoro-4-(methylsulfonyl)-phenylamino)-1-(1-(5-(1,1,1-trifluoro-2-methylpropan-2-yl)-1,2,4-oxadiazol-3-yl)piperidin-4-yl)pyrrolidin-2-one]
cAMP production in HEK-293 cells: 8.7 nmol | Fold over baseline: 2.9

CCC(F)(F)c1nc(N2CCC(N3CC[C@H](Nc4ccc(S(C)(=O)=O)cc4F)C3=O)CC2)no1 [Example 47, (S)-1-(1-(5-(1,1-difluoropropyl)-1,2,4-oxadiazol-3-yl)piperidin-4-yl)-3-(2-fluoro-4-(methylsulfonyl)-phenylamino)pyrrolidin-2-one]
cAMP production in HEK-293 cells: 17.2 nmol | Fold over baseline: 2.5

CS(=O)(=O)c1cc(F)c(N[C@H]2CCCN(C3CCN(c4noc(C(F)(F)F)n4)CC3)C2=O)cc1F [Example 25, (S)-3-(2,5-difluoro-4-(methylsulfonyl)phenylamino)-1′-(5-(trifluoromethyl)-1,2,4-oxadiazol-3-yl)-1,4′-bipiperidin-2-one]
cAMP production in HEK-293 cells: 49.0 nmol | Fold over baseline: 2.9

CS(=O)(=O)c1ccc(N[C@H]2CCN(C3CCN(c4noc(C(F)F)n4)CC3)C2=O)c(F)c1 [Example 21, (S)-1-(1-(5-(difluoromethyl)-1,2,4-oxadiazol-3-yl)piperidin-4-yl)-3-(2-fluoro-4-(methylsulfonyl)phenylamino)pyrrolidin-2-one]
cAMP production in HEK-293 cells: 21.0 nmol | Fold over baseline: 2.8

CC(C)c1nc(N2CCC(N3CC[C@H](Nc4ccc(S(C)(=O)=O)cc4F)C3=O)CC2)no1 [Example 15, (S)-3-(2-fluoro-4-(methylsulfonyl)phenylamino)-1-(1-(5-isopropyl-1,2,4-oxadiazol-3-yl)piperidin-4-yl)pyrrolidin-2-one]
cAMP production in HEK-293 cells: 20.8 nmol | Fold over baseline: 3.8

CS(=O)(=O)c1cc(F)c(N[C@H]2CCCN(C3CCN(c4noc(C(F)F)n4)CC3)C2=O)cc1F [Example 33, (S)-3-(2,5-difluoro-4-(methylsulfonyl)phenylamino)-1′-(5-(difluoromethyl)-1,2,4-oxadiazol-3-yl)-1,4′-bipiperidin-2-one]
cAMP production in HEK-293 cells: 10.1 nmol | Fold over baseline: 2.5

CC(F)(F)c1nc(N2CCC(N3CC[C@H](Nc4cc(F)c(S(C)(=O)=O)cc4F)C3=O)CC2)no1 [Example 64, (S)-3-((2,5-difluoro-4-(methylsulfonyl)phenyl)amino)-1-(1-(5-(1,1-difluoroethyl)-1,2,4-oxadiazol-3-yl)piperidin-4-yl)pyrrolidin-2-one]
cAMP production in HEK-293 cells: 15.8 nmol | Fold over baseline: 3.3

CC(C)c1noc(N2CCC(N3CCC[C@H](Nc4ccc(S(C)(=O)=O)cc4F)C3=O)CC2)n1 [Example 7, (S)-3-(2-fluoro-4-(methylsulfonyl)phenylamino)-1′-(3-isopropyl-1,2,4-oxadiazol-5-yl)-1,4′-bipiperidin-2-one]
cAMP production in HEK-293 cells: 27.8 nmol | Fold over baseline: 5.7

CS(=O)(=O)c1ccc(N[C@H]2CCCN(C3CCN(c4noc(C(F)(F)F)n4)CC3)C2=O)c(F)c1 [Example 29, (S)-3-(2-fluoro-4-(methylsulfonyl)phenylamino)-1′-(5-(trifluoromethyl)-1,2,4-oxadiazol-3-yl)-1,4′-bipiperidin-2-one]
cAMP production in HEK-293 cells: 47.6 nmol | Fold over baseline: 3.0

CS(=O)(=O)c1cc(F)c(N[C@H]2CCCN(C3CCN(c4nc(C(F)(F)F)no4)CC3)C2=O)cc1F [Example 9, (S)-3-(2,5-difluoro-4-(methylsulfonyl)phenylamino)-1′-(3-trifluoromethyl-1,2,4-oxadiazol-5-yl)-1,4′-bipiperidin-2-one]
cAMP production in HEK-293 cells: 11.4 nmol | Fold over baseline: 3.5

CS(=O)(=O)c1cc(F)c(N[C@H]2CCCN(C3CCN(c4noc(C(F)F)n4)CC3)C2=O)c(F)c1 [Example 32, (S)-3-(2,6-difluoro-4-(methylsulfonyl)phenylamino)-1′-(5-(difluoromethyl)-1,2,4-oxadiazol-3-yl)-1,4′-bipiperidin-2-one]
cAMP production in HEK-293 cells: 7.9 nmol | Fold over baseline: 2.4

CC(F)(F)c1noc(N2CCC(N3CCC[C@H](Nc4c(F)cc(S(C)(=O)=O)cc4F)C3=O)CC2)n1 [Example 62, (S)-3-((2,6-difluoro-4-(methylsulfonyl)phenyl)amino)-1′-(3-(1,1-difluoroethyl)-1,2,4-oxadiazol-5-yl)-[1,4′-bipiperidin]-2-one]
cAMP production in HEK-293 cells: 16.2 nmol | Fold over baseline: 2.6

CS(=O)(=O)c1ccc(N[C@H]2CCN(C3CCN(c4noc(N5CCCC5)n4)CC3)C2=O)c(F)c1 [Example 51]
cAMP production in HEK-293 cells: 16.3 nmol | Fold over baseline: 2.9
